Data: article PMC9090415, “Discovery of small molecule inhibitors of Plasmodium falciparum apicoplast DNA polymerase” (Journal of Enzyme Inhibition and Medicinal Chemistry, 2022)

Target: P. falciparum apicoplast DNA polymerase (Pf-apPOL) (Plasmodium falciparum, UniProt Q8ILY1)
Experiment: Fluorescence-based high-throughput DNA polymerase assay (molecular beacon), primary screen and dose-response;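 as to % inhibition ApPOL 90': test concentration in µM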;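 as to % inhibition apPOL 180': test concentration in µM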
Format: biochemical
In short: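 Single-point screening used 10 µM compound with 20 nM polymerase, 20 nM hairpin substrate and 6 µM dNTPs for 90 min at 25 °C. Confirmatory titrations (2.5–80 µM) followed fluorescence at three times, and IC50 was derived from a fit including a cooperativity term n.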

Chain of P. falciparum apicoplast DNA polymerase (Pf-apPOL) (Q8ILY1 entry or part of it): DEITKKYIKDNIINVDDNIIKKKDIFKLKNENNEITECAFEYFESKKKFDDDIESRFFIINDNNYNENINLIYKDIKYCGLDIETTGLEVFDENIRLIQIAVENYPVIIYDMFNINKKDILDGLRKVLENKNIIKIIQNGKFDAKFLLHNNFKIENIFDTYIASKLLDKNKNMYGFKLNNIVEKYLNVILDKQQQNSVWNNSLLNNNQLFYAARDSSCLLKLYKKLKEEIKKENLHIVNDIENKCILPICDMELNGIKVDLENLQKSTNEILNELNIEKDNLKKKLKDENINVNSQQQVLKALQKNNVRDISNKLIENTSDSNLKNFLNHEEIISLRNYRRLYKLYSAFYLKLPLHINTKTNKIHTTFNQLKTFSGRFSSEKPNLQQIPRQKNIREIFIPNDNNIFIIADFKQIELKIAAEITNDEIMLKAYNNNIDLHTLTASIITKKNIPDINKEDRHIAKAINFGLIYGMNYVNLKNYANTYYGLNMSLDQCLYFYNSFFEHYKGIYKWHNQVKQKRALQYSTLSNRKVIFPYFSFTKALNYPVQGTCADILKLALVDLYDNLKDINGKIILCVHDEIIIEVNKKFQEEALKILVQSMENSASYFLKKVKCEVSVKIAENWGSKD

Structure (SMILES): Cc1cccc(NC(=O)Cn2ccc3c(=O)[nH]ccc32)c1C [Molecule 11, O=C(Cn1ccc2c1cc[nH]c2=O)Nc1cccc(c1C)C]
- DNA Pol ('DNA Pol' of the 186 hits list (screen value); 90 min, 10 µM): 54
- % inhibition Apo pol 10' (DRC-1; 10'; conc 2.5): 3.616%
- % inhibition Apo pol 10' (DRC-1; 10'; conc 5): 26.2157%
- % inhibition Apo pol 10' (DRC-1; 10'; conc 10): 64.035%
- % inhibition Apo pol 10' (DRC-1; 10'; conc 20): 84.2642%
- % inhibition Apo pol 10' (DRC-1; 10'; conc 40): 89.6589%
- % inhibition Apo pol 10' (DRC-1; 10'; conc 80): 84.1772%
- % inhibition Apol 90' (DRC-1; 90'; conc 2.5): 0.4643%
- % inhibition Apol 90' (DRC-1; 90'; conc 5): 14.6206%
- % inhibition Apol 90' (DRC-1; 90'; conc 10): 51.1257%
- % inhibition Apol 90' (DRC-1; 90'; conc 20): 80.5216%
- % inhibition Apol 90' (DRC-1; 90'; conc 40): 91.1147%
- % inhibition Apol 90' (DRC-1; 90'; conc 80): 90.9413%
- % inhibition apPOL 180' (DRC-1; 180'; conc 2.5): -2.306%
- % inhibition apPOL 180' (DRC-1; 180'; conc 5): 3.486%
- % inhibition apPOL 180' (DRC-1; 180'; conc 10): 34.4928%
- % inhibition apPOL 180' (DRC-1; 180'; conc 20): 70.7317%
- % inhibition apPOL 180' (DRC-1; 180'; conc 40): 89.3869%
- % inhibition apPOL 180' (DRC-1; 180'; conc 80): 93.0322%
- % inhibition Apo pol 5' (DRC-2; 5'; conc 2.5): 1.64%
- % inhibition Apo pol 5' (DRC-2; 5'; conc 5): 23%
- % inhibition Apo pol 5' (DRC-2; 5'; conc 10): 46%
- % inhibition Apo pol 5' (DRC-2; 5'; conc 20): 49%
- % inhibition Apo pol 5' (DRC-2; 5'; conc 40): 47%
- % inhibition Apo pol 5' (DRC-2; 5'; conc 80): 39%
- % inhibition Apol 40' (DRC-2; 40'; conc 2.5): 0.556%
- % inhibition Apol 40' (DRC-2; 40'; conc 5): 28%
- % inhibition Apol 40' (DRC-2; 40'; conc 10): 58%
- % inhibition Apol 40' (DRC-2; 40'; conc 20): 67%
- % inhibition Apol 40' (DRC-2; 40'; conc 40): 69%
- % inhibition Apol 40' (DRC-2; 40'; conc 80): 66%
- % inhibition Apol 40' (DRC-2; 40'; concentration 10): 58%
- % inhibition Apol 40' (DRC-2; 40'; concentration 40): 69%
- % inhibition ApPOL 90' (DRC-2; 90'; conc 2.5): -1.29%
- % inhibition ApPOL 90' (DRC-2; 90'; conc 5): 24%
- % inhibition ApPOL 90' (DRC-2; 90'; conc 10): 58%
- % inhibition ApPOL 90' (DRC-2; 90'; conc 20): 70%
- % inhibition ApPOL 90' (DRC-2; 90'; conc 40): 73%
- % inhibition ApPOL 90' (DRC-2; 90'; conc 80): 72%
- % inhibition ApPOL 90' (DRC-2; 90'; concentration 10): 58%
- % inhibition apPOL 180' (DRC-2; 180'; conc 2.5): -8%
- % inhibition apPOL 180' (DRC-2; 180'; conc 5): 13%
- % inhibition apPOL 180' (DRC-2; 180'; conc 10): 50%
- % inhibition apPOL 180' (DRC-2; 180'; conc 20): 69%
- % inhibition apPOL 180' (DRC-2; 180'; conc 40): 77%
- % inhibition apPOL 180' (DRC-2; 180'; conc 80): 77%
- % inhibition apPOL 180' (DRC-2; 180'; concentration 20): 69%
- % inhibition apPOL 180' (DRC-2; 180'; concentration 40): 77%
- % inhibition apPOL 180' (DRC-2; 180'; concentration 80): 77%
- DNA Pol (primary screen value, "DNA Pol"; 90 min, 10 µM): 54

Structure (SMILES): O=C(Nc1nnc(-c2cccs2)o1)c1ccc([N+](=O)[O-])o1 [Molecule 74, O=C(c1ccc(o1)[N+](=O)[O-])Nc1nnc(o1)c1cccs1]
- DNA Pol ('DNA Pol'; screening value, unit not given; 90 min, 10 µM): 45
- % inhibition Apo pol 10' (DRC-1; 10'; concentration 2.5): 6.774%
- % inhibition Apo pol 10' (DRC-1; 10'; concentration 5): 8.378%
- % inhibition Apo pol 10' (DRC-1; 10'; concentration 10): 26.6912%
- % inhibition Apo pol 10' (DRC-1; 10'; concentration 20): 31.2083%
- % inhibition Apo pol 10' (DRC-1; 10'; concentration 40): 61.6111%
- % inhibition Apo pol 10' (DRC-1; 10'; concentration 80): 81.7408%
- % inhibition Apol 90' (DRC-1; 90'; concentration 2.5): 1.699%
- % inhibition Apol 90' (DRC-1; 90'; concentration 5): 1.687%
- % inhibition Apol 90' (DRC-1; 90'; concentration 10): 13.6974%
- % inhibition Apol 90' (DRC-1; 90'; concentration 20): 16.6576%
- % inhibition Apol 90' (DRC-1; 90'; concentration 40): 40.7668%
- % inhibition Apol 90' (DRC-1; 90'; concentration 80): 62.2777%
- % inhibition apPOL 180' (DRC-1; 180'; concentration 2.5): -4.1234%
- % inhibition apPOL 180' (DRC-1; 180'; concentration 5): -4.583%
- % inhibition apPOL 180' (DRC-1; 180'; concentration 10): 3.855%
- % inhibition apPOL 180' (DRC-1; 180'; concentration 20): 5.086%
- % inhibition apPOL 180' (DRC-1; 180'; concentration 40): 25.388%
- % inhibition apPOL 180' (DRC-1; 180'; concentration 80): 45.6773%
- % inhibition Apo pol 5' (DRC-2, 5', concentration 2.5): 3%
- % inhibition Apo pol 5' (DRC-2, 5', concentration 5): 14%
- % inhibition Apo pol 5' (DRC-2, 5', concentration 10): 30%
- % inhibition Apo pol 5' (DRC-2, 5', concentration 20): 41%
- % inhibition Apo pol 5' (DRC-2, 5', concentration 40): 61%
- % inhibition Apo pol 5' (DRC-2, 5', concentration 80): 70%
- % inhibition Apol 40' (DRC-2, 40', concentration 2.5): 1.79%
- % inhibition Apol 40' (DRC-2, 40', concentration 5): 13%
- % inhibition Apol 40' (DRC-2, 40', concentration 10): 27%
- % inhibition Apol 40' (DRC-2, 40', concentration 20): 36%
- % inhibition Apol 40' (DRC-2, 40', concentration 40): 61%
- % inhibition Apol 40' (DRC-2, 40', concentration 80): 78%
- % inhibition ApPOL 90' (DRC-2, 90', concentration 2.5): -0.446%
- % inhibition ApPOL 90' (DRC-2, 90', concentration 5): 12%
- % inhibition ApPOL 90' (DRC-2, 90', concentration 10): 24%
- % inhibition ApPOL 90' (DRC-2, 90', concentration 20): 32%
- % inhibition ApPOL 90' (DRC-2, 90', concentration 40): 57%
- % inhibition ApPOL 90' (DRC-2, 90', concentration 80): 79%
- % inhibition apPOL 180' (DRC-2, 180', concentration 2.5): -3.19%
- % inhibition apPOL 180' (DRC-2, 180', concentration 5): 7%
- % inhibition apPOL 180' (DRC-2, 180', concentration 10): 15%
- % inhibition apPOL 180' (DRC-2, 180', concentration 20): 20%
- % inhibition apPOL 180' (DRC-2, 180', concentration 40): 45%
- % inhibition apPOL 180' (DRC-2, 180', concentration 80): 76%
- % inhibition Apo pol 5' (conc 40 (unit not given); 5'; DRC-2): 61%
- % inhibition Apol 40' (conc 40 (unit not given); 40'; DRC-2): 61%
- DNA Pol (primary screen hit value, DNA Pol (186 hits); 90 min, 10 µM): 45
